Our source for the T/C values is PubChem BioAssay AID330 (DTP/NCI, 2004).

Structures are written as SMILES. Several values for one entry are separate records, joined by “and”; a condition that tells them apart may be missing. Equal values may be shown once. Inconclusive results and toxic doses are left out.

The subject of the experiment is P388 leukemia ip, CD2F1 mice, survival T/C. In words: NCI In Vivo Anticancer Drug Screen. Data for tumor model P388 Leukemia (intraperitoneal) in CD2F1 (CDF1) mice. Particulars: endpoint: median survival time, higher = longer survival. The method, boiled down: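 Mice carrying the transplanted tumor received test compound or vehicle. Survival was recorded in each group, and the value is the treated-group measurement divided by that of the vehicle-treated control group.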

Where [1] appears, read: dose: 60.0 mg/kg/injection, schedule: Q01DX005 (ip), vehicle: saline with Tween-80.
The mark [2] stands for this setting: dose: 120.0 mg/kg/injection, schedule: Q01DX005 (ip), vehicle: saline with Tween-80.
The mark [3] stands for this setting: dose: 50.0 mg/kg/injection, schedule: Q01DX005 (ip), vehicle: saline with Tween-80.
Where [4] appears, read: dose: 50.0 mg/kg/injection, schedule: Q01DX005 (ip), vehicle: saline.
Where [5] appears, read: dose: 100.0 mg/kg/injection, schedule: Q01DX005 (ip), vehicle: saline with Tween-80.
[6] abbreviates: dose: 100.0 mg/kg/injection, schedule: Q01DX005 (ip), vehicle: saline.
[7] abbreviates: dose: 6.25 mg/kg/injection, schedule: Q01DX009 (ip), vehicle: saline.
[8] abbreviates: dose: 12.5 mg/kg/injection, schedule: Q01DX009 (ip), vehicle: saline.
[9] abbreviates: dose: 50.0 mg/kg/injection, schedule: Q01DX005 (ip), vehicle: Klucel (hydroxypropylcellulose) (HPC).
Where [10] appears, read: dose: 100.0 mg/kg/injection, schedule: Q01DX005 (ip), vehicle: Klucel (hydroxypropylcellulose) (HPC).
Where [11] appears, read: dose: 50.0 mg/kg/injection, schedule: Q01DX009 (ip), vehicle: Klucel (hydroxypropylcellulose) (HPC).
The mark [12] stands for this setting: dose: 100.0 mg/kg/injection, schedule: Q01DX009 (ip), vehicle: Klucel (hydroxypropylcellulose) (HPC).

For `S=c1cc(-c2ccccc2)ss1`, the T/C runs as follows: (dose: 178.0 mg/kg/injection, schedule: Q04DX003 (ip), vehicle: saline with Tween-80) 102 % of control; (dose: 266.0 mg/kg/injection, schedule: Q04DX003 (ip), vehicle: saline with Tween-80) 102 % of control; (dose: 400.0 mg/kg/injection, schedule: Q04DX003 (ip), vehicle: saline with Tween-80) 101 % of control; (dose: 600.0 mg/kg/injection, schedule: Q04DX003 (ip), vehicle: saline with Tween-80) 102 % of control.

`COC(=O)C1C(C)(C)N=[N+]([O-])C1(C)C` (stereo not drawn): the T/C (dose: 12.5 mg/kg/injection, schedule: Q01DX009 (ip), vehicle: water) was 102 % of control; the T/C (dose: 25.0 mg/kg/injection, schedule: Q01DX009 (ip), vehicle: water) was 107 % of control; the T/C (dose: 50.0 mg/kg/injection, schedule: Q01DX009 (ip), vehicle: water) is 99 % of control; the T/C (dose: 100.0 mg/kg/injection, schedule: Q01DX009 (ip), vehicle: water) is 97 % of control; the T/C (dose: 200.0 mg/kg/injection, schedule: Q01DX009 (ip), vehicle: water) was 99 % of control.

On to `CC(C)(C)c1cc(-n2nc3ccccc3[n+]2[O-])c(O)c(C(C)(C)C)c1`, for which the T/C reads like this: under setting [1], 100 % of control; under setting [2], 94 % of control; (dose: 240.0 mg/kg/injection, schedule: Q01DX005 (ip), vehicle: saline with Tween-80) 91 % of control.

On to `CN1CCC2(CC1)OCCCO2`, for which the T/C (dose: 25.0 mg/kg/injection, schedule: Q01DX005 (ip), vehicle: saline with Tween-80) was 102 % of control; the T/C under setting [3] is 94 % of control; the T/C under setting [4] was 99 % of control; the T/C (dose: 75.0 mg/kg/injection, schedule: Q01DX001 (ip), vehicle: saline with Tween-80) is 105 % of control; the T/C under setting [5] is 100 % of control and 88 % of control; the T/C under setting [6] was 96 % of control. Further, the T/C is, setting by setting: (dose: 125.0 mg/kg/injection, schedule: Q01DX001 (ip), vehicle: saline with Tween-80) 101 % of control; (dose: 200.0 mg/kg/injection, schedule: Q01DX005 (ip), vehicle: saline) 102 % of control; (dose: 250.0 mg/kg/injection, schedule: Q01DX001 (ip), vehicle: saline with Tween-80) 93 % of control.

Take `CC1=CC2=C(C=O)C(=O)[C@](C)(O)[C@@H](O)C2=CO1`: the T/C reads like this: (dose: 12.5 mg/kg/injection, schedule: Q01DX009 (ip), vehicle: saline with Tween-80) 109 % of control; (dose: 25.0 mg/kg/injection, schedule: Q01DX009 (ip), vehicle: saline with Tween-80) 118 % of control.

For `CCOC(=O)Nc1cc(NCC(=O)c2ccc3ccccc3c2)c([N+](=O)[O-])c(N)n1`, the T/C runs as follows: (dose: 60.0 mg/kg/injection, schedule: Q01DX005 (ip), vehicle: Klucel (hydroxypropylcellulose) (HPC)) 92 % of control; (dose: 120.0 mg/kg/injection, schedule: Q01DX005 (ip), vehicle: Klucel (hydroxypropylcellulose) (HPC)) 91 % of control; (dose: 240.0 mg/kg/injection, schedule: Q01DX005 (ip), vehicle: Klucel (hydroxypropylcellulose) (HPC)) 98 % of control.

As for `COC(=O)C1=C(C(=O)OC)C2CC3C4CC=C5CC(OC(C)=O)CCC5(C)C4CCC3(C)C2=C(OC(C)=O)C1` (stereo not drawn), the T/C is 90 % of control under setting [3] and 87 % of control under setting [5].

Consider `O=NNc1ccc(Sc2ccccc2)cn1`, for which the T/C is, setting by setting: under setting [7], 153 % of control; under setting [8], 88 % of control and 90 % of control.

On to `CC(C)(Br)C(=O)/C=C/c1ccccc1`, for which the T/C runs as follows: under setting [1], 105 % of control; under setting [2], 115 % of control.

As for `Nc1ccc(O)cc1O`, the T/C is 98 % of control (dose: 1.56 mg/kg/injection, schedule: Q01DX009 (ip), vehicle: saline); 109 % of control (dose: 3.12 mg/kg/injection, schedule: Q01DX009 (ip), vehicle: saline); 106 % of control under setting [7]; 118 % of control and 119 % of control under setting [8].

Take `COc1cc2c(c(OC)c1OC)-c1cc3c(cc1CC(CO)C(CO)C2)OCO3` (stereo not drawn): the T/C runs as follows: (dose: 0.5 mg/kg/injection, schedule: Q04DX002 (ip), vehicle: saline with Tween-80) 101 % of control; (dose: 1.0 mg/kg/injection, schedule: Q04DX002 (ip), vehicle: saline with Tween-80) 106 % of control; (dose: 2.0 mg/kg/injection, schedule: Q04DX002 (ip), vehicle: saline with Tween-80) 103 % of control.

With `C/C=C/C=C/C1=C2C(=O)N(c3ccccc3)N=C2CC(C)O1` (stereo not drawn), the T/C is 100 % of control under setting [9] and 104 % of control under setting [10].

In the case of `O=c1ccc2cc3c(c(O)c2o1)OC=CC3`, the T/C under setting [11] is 98 % of control and the T/C under setting [12] was 94 % of control.

On to `C=CCNC1=C2C[C@@H](C)C[C@H](OC)[C@H](O)[C@@H](C)/C=C(\C)[C@H](OC(N)=O)[C@@H](OC)/C=C\C=C(/C)C(=O)NC(=CC1=O)C2=O`, for which the T/C (dose: 6.25 mg/kg/injection, schedule: Q01DX009 (ip), vehicle: DMSO) is 108 % of control; the T/C (dose: 6.25 mg/kg/injection, schedule: Q01DX009 (ip), vehicle: distilled water + Tween-80) is 112 % of control; the T/C (dose: 12.5 mg/kg/injection, schedule: Q01DX009 (ip), vehicle: DMSO) was 100 % of control; the T/C (dose: 12.5 mg/kg/injection, schedule: Q01DX009 (ip), vehicle: distilled water + Tween-80) was 112 % of control; the T/C (dose: 25.0 mg/kg/injection, schedule: Q01DX009 (ip), vehicle: DMSO) is 107 % of control.

On to `COc1ccc2oc3c(ccc(=O)n3C)c(=O)c2c1`, for which the T/C runs as follows: (dose: 0.69 mg/kg/injection, schedule: Q01DX001 (ip), vehicle: saline with Tween-80) 99 % of control; (dose: 138.0 mg/kg/injection, schedule: Q01DX001 (ip), vehicle: saline with Tween-80) 96 % of control; (dose: 276.0 mg/kg/injection, schedule: Q01DX001 (ip), vehicle: saline with Tween-80) 91 % of control.

With `CC(Cc1ccccc1)N(C)C1=C(CCC#N)CC(C(C)(C)C)CC1` (stereo not drawn), the T/C under setting [4] is 100 % of control and the T/C under setting [6] was 100 % of control.

Consider `O=S(=O)(Nc1ccc(NS(=O)(=O)c2ccccc2)cc1)c1ccccc1`, for which the T/C is 100 % of control (dose: 50.0 mg/kg/injection, schedule: Q04DX003 (ip), vehicle: saline); 109 % of control (dose: 100.0 mg/kg/injection, schedule: Q04DX003 (ip), vehicle: saline); 100 % of control (dose: 200.0 mg/kg/injection, schedule: Q04DX003 (ip), vehicle: saline).

Regarding `N=c1ccn2c(n1)OC1C(OP(=O)(O)O)C(CO)OC12` (stereo not drawn), the T/C (dose: 177.0 mg/kg/injection, schedule: Q04DX003 (ip), vehicle: saline with Tween-80) is 154 % of control.

As for `COc1cc(C#N)cc(OC)c1`, the T/C was 109 % of control (dose: 25.0 mg/kg/injection, schedule: Q04DX003 (ip), vehicle: saline with Tween-80); 100 % of control (dose: 50.0 mg/kg/injection, schedule: Q04DX003 (ip), vehicle: saline with Tween-80); 100 % of control (dose: 100.0 mg/kg/injection, schedule: Q04DX003 (ip), vehicle: saline with Tween-80); 100 % of control (dose: 200.0 mg/kg/injection, schedule: Q04DX003 (ip), vehicle: saline with Tween-80).

With `COc1ccccc1C(=O)C(CN(C)C)CN(C)C`, the T/C was 105 % of control (dose: 1.87 mg/kg/injection, schedule: Q01DX005 (ip), vehicle: saline); 108 % of control (dose: 3.75 mg/kg/injection, schedule: Q01DX005 (ip), vehicle: saline); 112 % of control (dose: 7.5 mg/kg/injection, schedule: Q01DX005 (ip), vehicle: saline); 112 % of control (dose: 60.0 mg/kg/injection, schedule: Q01DX005 (ip), vehicle: saline).

For `CCCCCCCCCCCCCCCCOc1ccc(S(=O)(=O)Nc2ccc(N)cc2O)cc1`, the T/C by setting is: under setting [11], 110 % of control; under setting [12], 94 % of control; (dose: 200.0 mg/kg/injection, schedule: Q01DX009 (ip), vehicle: Klucel (hydroxypropylcellulose) (HPC)) 112 % of control.

In the case of `O=C(Nc1cccc(C(F)(F)F)c1)OC1CC2CC1C1CC3OC3C21` (stereo not drawn), the T/C by setting is: under setting [9], 93 % of control; under setting [10], 87 % of control.

For `O=C1N(Cc2ccccc2)CCN1Cc1ccccc1`, the T/C was 95 % of control under setting [9]; 94 % of control under setting [10]; 104 % of control (dose: 200.0 mg/kg/injection, schedule: Q01DX005 (ip), vehicle: Klucel (hydroxypropylcellulose) (HPC)).
